Results reported in PMC9967275, “Screening the Pathogen Box to Discover and Characterize New Cruzain and TbrCatL Inhibitors” (Pathogens, 2023).

Assays:
cruzain = cruzain (Trypanosoma cruzi, UniProt P25779); assay: biochemical; details: for Cruzain 0’ Inhibition / Cruzain 10’ Inhibition: sheet "Screening results"
Summary of the method: (§1)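 Recombinant enzymes assayed by Z-Phe-Arg-AMC cleavage at 25 °C, fluorescence 340/440 nm over 5–7 min, with 10 min or no enzyme–compound preincubation.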

TbrCatL = molecular target: T1, TbrCatL (Trypanosoma brucei rhodesiense, UniProt Q95PM0); assay: TbrCatL enzymatic inhibition assay (cleavage of fluorogenic substrate Z-FR-AMC); type: biochemical; details: for TbrCatL 0’ Inhibition / TbrCatL 10’ Inhibition: sheet "Screening results"
T1 construct: Conor Caffrey (University of California San Diego)
T1 sequence (Q95PM0 entry or part of it): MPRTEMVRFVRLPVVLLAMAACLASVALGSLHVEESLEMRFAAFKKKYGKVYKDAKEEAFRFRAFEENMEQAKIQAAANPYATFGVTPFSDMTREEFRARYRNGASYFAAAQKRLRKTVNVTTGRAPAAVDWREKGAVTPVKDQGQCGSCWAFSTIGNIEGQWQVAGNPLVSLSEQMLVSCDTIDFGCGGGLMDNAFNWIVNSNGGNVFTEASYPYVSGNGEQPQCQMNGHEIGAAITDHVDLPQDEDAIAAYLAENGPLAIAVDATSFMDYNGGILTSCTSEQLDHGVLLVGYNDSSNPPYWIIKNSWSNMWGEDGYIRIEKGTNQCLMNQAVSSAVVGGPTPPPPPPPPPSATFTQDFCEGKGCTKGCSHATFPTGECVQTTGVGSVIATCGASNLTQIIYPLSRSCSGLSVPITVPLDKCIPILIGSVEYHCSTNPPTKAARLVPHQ
Summary of the method: as §1

[1] = 0’ (no pre-incubation), sheet Screening results
[2] = 10’ (pre-incubation), sheet Screening results
[3] = 0’ (pre-incubation time), Pathogen Box screening results
[4] = 10’ (pre-incubation time), Pathogen Box screening results
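Further: at 5 µM compound concentration.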

cruzain, sequence (P25779 123-337 limits assumed): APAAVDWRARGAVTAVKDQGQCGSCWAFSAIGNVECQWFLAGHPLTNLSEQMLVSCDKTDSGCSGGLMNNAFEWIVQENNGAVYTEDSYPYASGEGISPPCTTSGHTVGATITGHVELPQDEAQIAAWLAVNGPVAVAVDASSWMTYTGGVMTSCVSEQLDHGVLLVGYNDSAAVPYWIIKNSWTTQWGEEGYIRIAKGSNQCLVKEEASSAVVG

Row | Compound | Cruzain Inhibition 0’ (cruzain; [1]) | Cruzain Inhibition 10’ (cruzain; [2]) | TbrCatL Inhibition 0’ (TbrCatL; [1]) | TbrCatL Inhibition 10’ (TbrCatL; [2]) | Cruzain 0’ Inhibition (cruzain; 0’ (pre-incubation time)) | Cruzain 10’ Inhibition (cruzain; 10’ (pre-incubation time)) | TbrCatL 0’ Inhibition (TbrCatL; 0’ (pre-incubation time)) | TbrCatL 10’ Inhibition (TbrCatL; 10’ (pre-incubation time)) | other results
1 | CCN(CC)CCCCCCNc1cc(OC)cc2c(C)ccnc12 [MMV000063] | 16% | 3% | 2.7% | 5.6% |  |  |  |  | 
2 | CCc1nc2ccc(Cl)cn2c1C(=O)NCc1ccc(N2CCC(c3ccc(OC(F)(F)F)cc3)CC2)cc1 [MMV687696] |  |  |  |  | 4.7% | 1.8% | -4.5% | -3.6% | 
3 | CNC(=O)c1cc(S(=O)(=O)N2CCN(c3ccccn3)CC2)cs1 [MMV020136] | 5% | 2% | -6.4% | -5.6% |  |  |  |  | 
4 | Cc1cc(Nc2ccc(C(F)(F)F)cc2)n2ccnc2n1 [MMV011229] |  |  |  |  | -0.9% | 1.4% | -1% | 6% | 
5 | CCOc1ccc(-c2nc(CNCCc3ccc(F)cc3)cs2)cc1 [MMV688938] |  |  |  |  | 6% | 12% | 3% | -3.6% | 
6 | CC(=O)N1CCN(c2ccc(Oc3ccc(Cl)cc3O)cc2)CC1 [MMV688330] |  |  |  |  |  |  |  |  | Cruzain Inhibition 0’ (cruzain; [3]): -3%; Cruzain Inhibition 10’ (cruzain; [4]): -11%; TbrCatL Inhibition 0’ (TbrCatL; [3]): -8%; TbrCatL Inhibition 10’ (TbrCatL; [4]): -10%
7 | CN(C(=O)c1cc2c(-c3cncnc3)cccc2[nH]1)c1ccccc1 [MMV024443] |  |  |  |  | 5% | 2.7% | -4.6% | -3.8% | 
8 | COc1cc2ncnc(NC3CCN(Cc4ccccc4)CC3)c2cc1OC [MMV006741] | 8% | 10% | 15% | 5.4% |  |  |  |  | 
9 | O=C(CCC1CCCCC1)Nc1cccc(-c2nnc(-c3ccco3)o2)c1 [MMV676589] | 0% | 4% | 3.3% | 4.4% |  |  |  |  | 
10 | COc1ccc(-c2cncc3ccc(C(=O)NCCCn4ccnc4)nc23)cc1 [MMV020670] |  |  |  |  | -2.2% | -17% | -3% | -13% | 
11 | CC(C(=O)Nc1ccc2oc(-c3ccncc3)nc2c1)c1ccccc1 (centres unmarked) [MMV688471] | 19% | 15% | 26% | 20% |  |  |  |  | 
12 | O=C([C@@H](c1ccc(Cl)cc1)c1cccnc1)N1CCN(c2ccc(C(F)(F)F)cc2)CC1 [MMV689244] |  |  |  |  | 2.7% | -3.2% | 6.4% | -2.8% | 
13 | CS(=O)(=O)Cc1nc2ccccc2oc1=O [MMV553002] | 18% | 12% | 19% | 19% |  |  |  |  | 
14 | CN1CCCN(C(c2ccccc2)c2ccc(Cl)cc2)CC1 (centres unmarked) [MMV004168] |  |  |  |  | 3.6% | 6.6% | -5.4% | 1.8% | 
